Reference: patent US6348201B2, “External composition for skin comprising sphingoglycolipid” (Kibun Food Chemifa Co., Ltd., priority 1997, dated 2002)

test system: hairless mice (Skh:hr-1); assay: Test for evaluating moisturizing and skin roughness prevention effects: transcutaneous transpiration measured with a hydrograph; format: in vivo; settings: 10th day, average of five mice, relative to control (0.5% Triton X-150, 9 g/m^2/h) as 100; Triton X-150 pretreated, middle-wavelength UV 0.15 J/cm^2, samples applied once a day on rear back
Method: Twenty male hairless mice of 9-week old (Skh:hr-1, Nihon SLC) were treated with 0.5% Triton X-150 (50 μl) in a circular area of 2.5 cm diameter on their rear backs. The once-a-day application was continued for 5 days. On the 6th day and thereafter, middle-wavelength UV light was irradiated at a dose of 0.15 J/cm^2 using a SE lamp (manufactured by Toshiba Medical Instruments Co., Ltd.), and Samples 1 to 5 (dissolved in 0.5% Triton X-150) listed below and control sample (0.5% Triton X-150) were applied. These procedures were followed once a day and continued up to the 10th day. Five hairless mice were subjected to each test for Samples or the control.
After the middle-wavelength UV irradiation and the sample application were completed on the 10th day, amount of transcutaneous transpiration was measured using a hydrograph (model AMU-3: manufactured by Fauchon Co., Ltd.) to determine an average value for the five mice. Results were shown in the table below, where the values are expressed in relative values assuming the control (9 g/m^2/h) as 100.

Question: With `CCCCCCCCCCCCC/C=C\C(O)C(CO)NC(=O)O[C@@H]1O[C@H](CO)[C@H](O)[C@H](O)[C@H]1O` (stereo partly drawn) [Sample 5 (comparison), Galactocerebroside] as the compound, how does the Relative transcutaneous transpiration read?
Answer: 91

Question: Ganglioside [Sample 4 (comparison)] was tested. Which Relative transcutaneous transpiration did it give?
Answer: 89

Question: With “Glyceroglycolipid [Sample 3 (comparison)]” as the compound, how does the Relative transcutaneous transpiration read?
Answer: 123
